Measured values published in patent US10577399B2, “Modified lantibiotics and methods of making and using the modified lantibiotics” (priority 2016, dated 2020).
Values after ≈ are worked out from the molar mass of the structure shown. “Also recorded” adds a separate entry of the source.

Experiments:
[1] = Lipid II binding assay by thin layer chromatography; conditions: 3:10 peptide:lipid II ratio
Procedure: Lipid II was a kind gift from Eefjan Breukink and was resuspended in a 1:1 Methanol:Chloroform solution. The lipid II binding assay using thin layer chromatography (TLC) was done as previously described^39. The mobile solvent consisted of consisted of butanol:acetic acid:water:pyridine (15:3:12:10 [vol/vol/vol/vol]). A 0.2 mM solution of mutacin 1140 or mu1140-COOH in 10 μL of solution A was mixed with lipid II (final […]) for 1 hour in a sealed glass vial. This corresponded to a ratio 3:10 peptide:lipid II ratio. All of the reaction mixtures and the appropriate controls were spotted (5 μL) 2 cm from the bottom of the plate. These spots define the origin of the plate. […] The mobile phase was allowed to climb up the plate until it reached a centimeter from the top. The plate was allowed to dry before staining with iodine.
With the loss of activity associated with a free carboxyl group in mu1140-COOH, the basis for the loss in activity was studied. The mechanism of action for class I lantibiotics has been determined to be due to lipid II binding^34-36. In particular, rings A and B are believed to form a cage-like structure around the pyrophosphate moiety of lipid II^37. The latter half of the peptide is predicted to enhance binding and recruit other lipid II-lantibiotic molecules into a large lipid II-lantibiotic complex^16. […]

B. subtilis PY79 cells = experiment: Microscopy lipid II competition assay with fluorescein labeled nisin; assay type: cell-based, Bacillus subtilis; conditions: pretreatment 10 μg/mL for 15 minutes
Procedure: B. subtilis PY79 was grown and treated with fluorescein labeled peptide as previously described^39. A fresh plate of B. subtilis was used to inoculate THyex broth and incubated approximately 16 hours at 37° C. The culture was diluted 20-fold and placed back in the incubator for 3 hours at 37° C. Then, 100 μl of the culture was incubated with the antibiotic (10 μg/mL) for 15 minutes. The cells were pelleted and resuspended in 100 μl of phosphate buffer solution (PBS). The wash step was repeated three times before fixing with 1.6% formaldehyde in PBS. After fixation the cells were washed with PBS three more times and the remaining pellet was suspended in 50 μL of PBS. The sample (30 μL) was added to a slide and observed using an Olympus confocal microscope with a 100×/0.90 dry objective. A 488 nm argon laser was used to excite the fluorophore. For the competition assay, the bacterial culture was initially incubated with mu1140-COOH or native mutacin 1140 at a concentration of 10 μg/mL for 15 minutes, washed, and resuspended in fresh media. 10 μg/mL of fluorescein labeled nisin was then added for 15 minutes, before following the wash protocol previously stated.

S. pneumoniae ATCC 27336 = assay type: cell-based, Streptococcus pneumoniae
In short: (§1)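 Broth microdilution: antibiotic in 50% acetonitrile, 2-fold dilutions from 640 μg/mL stock down to 0.156 μg/mL, 10 μL per well plus 190 μL of ~10^5 CFU bacteria grown in THyex at 37 °C. MIC read as concentration preventing visible growth after 24 h.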

M. luteus ATCC 10240 = assay type: cell-based, Micrococcus luteus
In short: as §1

trypsin = experiment: Trypsin stability screen with M. luteus overlay; assay type: in vitro ADME; conditions: 0.5 mg/mL trypsin, 37° C., 30 minutes
Description: Selective activity and stability of analogs: Several core peptide mutants are provided that have improved activity against our ATCC strain of S. pneumoniae. These core peptide mutants were also selected based on the absence of a dehydrated residue Dha/Dhb or the proteolytically susceptible arginine residue. […] Although the analog S5G had improved activity against S. pneumoniae ATCC 27336 compared to native mutacin and R13A, the S5G had less activity against all other tested strains of S. pneumoniae. […] 4) The R13A mutation prevents feedback inhibition of mutacin 1140 production, leading to a 100% increase in yield from the culture liquor. […] They are important for immunoregulation and blood coagulation. The observed increase in stability of the R13A analog will likely be advantageous in an animal model.

[2] = Pharmacokinetics after intravenous dose in mice; assay type: in vivo; conditions: mouse, iv, 2.5 mg/kg i. v., BALB/c mice, polynomial second order estimate
Procedure: The compounds were dissolved in normal saline for all pharmacokinetic studies. An extraction protocol was developed in vitro by the addition of each compound to commercially bought BALB/c mouse serum. The compounds were extracted by the addition of 70% ACN containing 0.1% TFA/30% methanol containing 0.4% formic acid. The extract was then analyzed by LC-MS using a TSQ Vantage Triple Quad mass spectrometer. A standard curve was generated for each compound using known dilutions of the compounds in serum, which was then extracted. The R-squared values for each standard exceeded 0.98. BALB/c mice were used to evaluate pharmacokinetics of the compounds in vivo. A 2.5 mg/kg i. v. dose was evaluated for native mutacin, R13A, S5G, and double mutant S5A:T14G (FIG. 12A). A polynomial second order was used to estimate the peak plasma concentration and half-life of the R13A. […] Possibly, the Dhb14 residue may protect the peptide from trypsin-like proteases in the blood. […] Thus, taking the dynamics of cell death into account and the pharmacokinetics of the R13A, the R13A in serum is above the inhibitory concentration for S. pneumonia long enough to kill the pathogen.

Solubility in saline = assay type: physicochemical; conditions: saline solution

## C=C1NC(=O)[C@H](Cc2c[nH]c3ccccc23)NC(=O)[C@H](NC(=O)[C@H](CCCCN)NC(=O)[C@@H](N)Cc2ccccc2)CSC[C@@H](C(=O)N[C@H]2C(=O)N3CCC[C@H]3C(=O)NCC(=O)N[C@H](C(=O)N[C@@H](C)C(=O)N[C@@H](CCCNC(=N)N)C(=O)N/C(=C\C)C(=O)NCC(=O)N[C@@H]3CSC[C@@H]4NC(=O)[C@H](Cc5ccc(O)cc5)NC(=O)[C@@H](CSC[C@@H](C(=O)O)NC4=O)NC(=O)[C@H](CC(N)=O)NC(=O)[C@H](Cc4ccccc4)NC3=O)CS[C@H]2C)NC(=O)[C@H](CC(C)C)NC1=O [Mu1140 - COOH]
[1]
  iodine stain at the origin of the TLC plate when mixed with lipid II: faint stain
B. subtilis PY79 cells
  binding of fluorescein labeled nisin after pretreatment of cells: no typical in vivo fluorescence pattern was observed; also recorded: drastically reduces binding of fluorescein labeled nisin
S. pneumoniae ATCC 27336; Table 7, S. pneumoniae ATCC 27336
  MIC (μg/mL) S. pneumoniae: greater than 64 μg/mL
S. pneumoniae ATCC 27336; vs wild type mutacin 1140
  reduction in activity (MIC, S. pneumoniae ATCC 27336): > 128 fold
M. luteus ATCC 10240; Table 7, chemically modified analogs
  MIC (μg/mL) M. luteus: 32 µg/mL (≈ 13.8 µM)
M. luteus ATCC 10240; vs wild type mutacin 1140
  reduction in activity compared to wild type mutacin 1140 (MIC, M. luteus): 256 fold

## C=C1NC(=O)[C@H](Cc2c[nH]c3ccccc23)NC(=O)C(NC(=O)[C@H](CCCCN)NC(=O)[C@@H](N)Cc2ccccc2)CSC[C@@H](C(=O)NC2C(=O)N3CCC[C@H]3C(=O)NCC(=O)N[C@H](C(=O)N[C@@H](C)C(=O)N[C@@H](C)C(=O)NC(=CC)C(=O)NCC(=O)NC3CSC[C@@H]4NC(=O)[C@H](Cc5ccc(O)cc5)NC(=O)[C@@H](CS/C=C\NC4=O)NC(=O)[C@H](CC(N)=O)NC(=O)[C@H](Cc4ccccc4)NC3=O)CSC2C)NC(=O)[C@H](CC(C)C)NC1=O (some centres unmarked) [Mutant R13A]
trypsin
  stability to trypsin: improved stability
[2]; in vivo, read-out: estimated half-life
  half-life: 70 min
[2]; plasma, read-out: peak plasma concentration
  Cmax: 1700 ng/mL
M. luteus ATCC 10240; Table 10, indicator strain Micrococcus luteus
  MIC: 0.0625 µg/mL (≈ 0.0287 µM)
Solubility in saline
  solubility: > 2000 µg/mL
